Source: patent US20190353644A1, “PROFILE ANALYSIS OF CELL POLARITY” (Wake Forest University Health Sciences, priority 2018, published 2019)

Tests used:
[1] = tested on: HMT-3522 S1 mammary epithelial cells acini; experiment: Radial profile (RP) analysis of ZO-1 distribution in acini; type: cell-based
Procedure: The concept of radial profile (RP) analysis of epithelial polarity was tested. A macro script and two plugins for the open image analysis software ImageJ (imagej.nih.gov/ij/) were developed. Subsequently, computer code was translated for the MATLAB® computing platform and improvements were made. This new code is referred to as the RadialProfiler algorithm. MATLAB® is a more robust and versatile computing platform that allows important improvement to the approach. In particular, MATLAB® can easily process entire image folders in batch using looping functions. Batch processing has been included in the new MATLAB® version of the RP analysis that enables automated analyses of series of images. The code was designed to analyze two-channel fluorescence microscopy images. The first channel corresponds to DAPI staining of cell nuclei, whereas the second channel corresponds to an apical polarity marker (e.g., ZO-1, Par3, or actin) detected by immunofluorescence. […] Initially, two plugins were developed to compare two approaches to quantify apical polarity: (1) an analysis of the RP distribution of the signals and (2) the computation of the moment of inertia (MOI). […]
Fluorescent signals of polarity markers in 3D cell cultures were scored visually for apical localization using an Olympus IX83 epifluorescence microscope equipped with a 60× oil immersion objective (NA=1.35). […]

live S1 cell acini = experiment: Live cell imaging of acini stained with SiR-actin; type: cell-based; conditions: leptin treatment as in EXAMPLE 3
Source text: RadialProfiler can be applied to quantify epithelial markers detected by immunofluorescence (as described in Tenvooren et al., Oncogene (2019)), or to quantify cortical actin labeled in live acini with the SiR-actin dye (Cytoskeleton Inc.). DAPI and Hoechst are used to counterstain cell nuclei in fixed and live experiments, respectively.
For imaging, an automated IX83 microscope (Olympus) equipped with a motorized ultrasonic stage and a TruFocus Z drift compensation module was used. For RadialProfiler analyses, images are taken with either 10× (NA=0.3) or 20× (NA=0.45) air lenses, using a sCMOS camera (ORCA-Flash4.0, Hamamatsu). The RadialProfiler software was also tested with images acquired using different imaging systems, including a high content imager (Perkin Elmer Operetta CLS). RadialProfiler and the underlying approach to analyze polarity are agnostic to the imaging system. Fields of view are chosen either in an automated fashion or based on nuclear signals (DAPI or Hoechst) to avoid bias. For live cell analyses, acini are maintained at 37° C. and 5% CO2 using a stage-top incubator (Tokai Hit). The minimal resolution needed depends on the number of radial terraces used by RadialProfiler. […] It was determined that using 5-10 bins that are 2 pixels wide yields accurate measurements. […]

[2] = tested on: mammary epithelial cell line stably expressing GFP-ZO-1; experiment: Live cell imaging of GFP-ZO-1 mammary epithelial cell line; type: cell-based; conditions: leptin treatment
Source text: Immunostaining techniques have certain limitations, including (1) time consumption, (2) costs of reagents, and (3) poor time resolution. An alternative approach has been developed based on live cell imaging. Immunostaining for polarity markers is replaced by expression of polarity marker proteins tagged with a fluorescent protein (e.g., GFP-ZO-1). A mammary epithelial cell line stably expressing GFP-ZO-1 has been generated and characterized (FIGS. 9A-9B). The cell line retains apical-basal polarity (which is disturbed by leptin treatment) and expresses the recombinant marker at physiological levels. As a more flexible alternative to genetically encoded fluorescent markers of polarity, a nontoxic actin dye compatible with live cell imaging (SiR-actin) has been used. Cells are stained for 1 h with a mix of SiR-actin and Hoechst (DNA dye) before imaging. Similar results were obtained with this approach compared to the fixed, immunostaining approach described in EXAMPLE 1.

[3] = tested on: HMT-3522 S1 mammary epithelial cells acini; experiment: Visual scoring of apical polarity markers in 3D acini cultures (conventional methods); type: cell-based; conditions: elevated levels of leptin; measured with conventional methods (Tenvooren et al.)
Source text: Non-neoplastic HMT-3522 S1 mammary epithelial cells were obtained from Dr. Mina Bissell (Lawrence Berkeley Laboratory) and propagated between passages 54 and 60 in H14 medium. Acinar differentiation was achieved by culturing the cells in 3D on top of a layer of Matrigel matrix (Corning) in chambered slides (Millipore), as described (10).
Fluorescent signals of polarity markers in 3D cell cultures were scored visually for apical localization using an Olympus IX83 epifluorescence microscope equipped with a 60× oil immersion objective (NA=1.35). At least 100 acini were scored per condition in each experiment. Alternatively, fluorescence images were taken with the CMOS camera (Hamamatsu, ORCA-Flash4.0) on this microscope, using a 10× (NA=0.3) objective. The ImageJ script was used to extract acini from DAPI images and to calculate the radial distribution of the signals. 150-450 acini were analyzed per condition.

apical polarity = conditions: Yue et al., Biophys. J. 102:1215 (2012); cited from earlier work

In the case of leptin, the “averaged RP curves and integrated values (ZO-1 radial distribution)” value ([1]; acini treated 72 h with vehicle or leptin (100 ng/ml), FIG. 8C, P<0.0001) is reported as “distinct for the two treatments”, the “apical SiR-actin signal” value (live S1 cell acini) is reported as “loss of apical SiR-actin signal” and the “apical-basal polarity of GFP-ZO-1 cell line” value [2] is reported as “disturbed”. For the same substance, the apical polarity [3] was “loss of apical polarity”.

In the case of “lipopolysaccharide [LPS, reference compound]”, the polarity score ([1]; breast acini exposed to LPS, FIG. 8F) is reported as “decrease in the polarity score”.

For omega-6 fatty acids, the apical polarity (apical polarity) is given as “disrupted”.
